The record followed here is ChEMBL document CHEMBL1201862, “PubChem BioAssay data set” (2004).

Among the test systems are SNB-78; M19-MEL; HOP-18; DLD-1; DMS-114; LXFL 529; DMS-273; XF498; RXF 631.
Assay in all cases: NCI-60 cell line screen, 48 h

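Results reflect a 48-hour exposure of cells in 96-well plates to compound at five concentrations. GI50 = concentration required for 50% inhibition of growth.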 Active and inactive are the calls of the source. No stated cut-off is given here; in the data, active = GI50 up to about 1.1 µM and inactive = higher. Where only a bound is given, the exact number is not on record here.

For the compound `CC1(C)Oc2ccccc2N2O[C@@H]3C(=O)N(c4ccccc4)C(=O)[C@@H]3C21c1ccccc1` (stereo partly drawn), the GI50 with SNB-78 was 35.5 µM (inactive); in the assay on M19-MEL, 29 µM (inactive); with HOP-18, 24.3 µM (inactive); in the assay with DLD-1 it was 25.1 µM (inactive); in the assay on DMS-114, 23.2 µM (inactive); with LXFL 529 it was 56.1 µM (inactive).

Regarding `CNc1ccc(/C=C2\C=Cc3ccccc32)cc1`, the GI50 in the assay with SNB-78 was 44.6 µM (inactive); with M19-MEL, 43.2 µM (inactive); in the assay with HOP-18, 16.4 µM (inactive); in the assay on DMS-273 it was 14.2 µM (inactive); with DLD-1, 31.3 µM (inactive); in the assay with DMS-114, 17 µM (inactive). The GI50 was 25.9 µM (inactive) in the assay with LXFL 529 and 40.9 µM (inactive) with XF498.

Regarding `CC1=CC(=O)C(C)(C2=NC(C)(C)CO2)c2ccccc21` (stereo not drawn), the GI50 is > 100 µM (inactive) in the assay with M19-MEL; 31.6 µM (inactive) with HOP-18; > 100 µM (inactive) in the assay on DLD-1; > 100 µM (inactive) in the assay with DMS-114; > 100 µM (inactive) in the assay with LXFL 529; > 100 µM (inactive) in the assay with RXF 631.

Regarding `O=C1c2cc([N+](=O)[O-])cc3cc([N+](=O)[O-])cc(c23)C(=O)N1CCCNCCNCCCN1C(=O)c2cc([N+](=O)[O-])cc3cc([N+](=O)[O-])cc(c23)C1=O`, the GI50 in the assay with SNB-78 is < 0.0193 µM (active); in the assay with M19-MEL it was 0.0381 µM (active); in the assay on HOP-18, 0.542 µM (active); in the assay with DMS-273, < 0.01 µM (active); with DLD-1 it was 0.0282 µM (active); in the assay with DMS-114, 0.0469 µM (active). Also, the GI50 in the assay with LXFL 529 and in the assay with XF498 was < 0.01 µM (active) in each case.

Regarding `CC(C)(C)OC(=O)C1=C(O)C(C(=O)OC(C)(C)C)C23CCCCC12C(C(=O)OC(C)(C)C)C(O)=C3C(=O)OC(C)(C)C` (stereo not drawn), the GI50 in the assay on SNB-78, with M19-MEL, in the assay with HOP-18, with DMS-273, in the assay with DLD-1 and with DMS-114 was > 100 µM (inactive) each time. The GI50 in the assay with LXFL 529 and in the assay on XF498 was > 100 µM (inactive) throughout.

Regarding `NNC(=S)N/N=C(\c1nc2ccc(Cl)cc2nc1O)C(O)c1cccc([N+](=O)[O-])c1` (stereo not drawn), the GI50 in the assay on SNB-78 was > 100 µM (inactive); with M19-MEL, > 100 µM (inactive); with HOP-18, > 100 µM (inactive); in the assay with DMS-273, > 41.1 µM (inactive); with LXFL 529, > 74.6 µM (inactive); in the assay on RXF 631, 32.3 µM (inactive). Moreover, the GI50 with XF498 was > 100 µM (inactive).

For `COc1ccc(/C=C/C(=O)c2sc(-c3cccnc3)nc2C)cc1`, the GI50 in the assay on SNB-78 is > 100 µM (inactive); in the assay on M19-MEL, 67.9 µM (inactive); in the assay with HOP-18, 45.3 µM (inactive); in the assay on DMS-273, 40.9 µM (inactive); with DLD-1 it was 39.4 µM (inactive); in the assay on DMS-114, 26.7 µM (inactive). For the same compound, in the assay with RXF 631, the GI50 is 54.3 µM (inactive).

For the compound `CN1N=C(N)c2cn(C3OC(COP(=O)(O)O)C(O)C3O)c3ncnc1c23` (stereo not drawn), the GI50 was 79.6 µM (inactive) in the assay on SNB-78; 390 µM (inactive) in the assay with M19-MEL; 9.14 µM (inactive) in the assay with HOP-18; 18.9 µM (inactive) with DMS-273; 1.03 µM (active) in the assay on DLD-1; 1620 µM (inactive) with DMS-114. Further, in the assay with XF498, the GI50 is 12.4 µM (inactive).

As to `O=S1OC2(c3ccccc3-c3ccccc32)c2ccccc21` (stereo not drawn), the GI50 with M19-MEL, with HOP-18, with DLD-1, in the assay on DMS-114, in the assay on LXFL 529 and in the assay with XF498 was > 100 µM (inactive) throughout.

In the case of `CCOC(=O)c1csc(CCCCCCc2nc(C(=O)OCC)cs2)n1`, the GI50 in the assay with SNB-78 was 45.3 µM (inactive); with M19-MEL, 21.9 µM (inactive); in the assay with HOP-18, 75.5 µM (inactive); in the assay on DMS-273 it was 41.2 µM (inactive); in the assay with DLD-1, > 61.4 µM (inactive); in the assay with LXFL 529, 56.1 µM (inactive). The GI50 in the assay on RXF 631 is > 87.7 µM (inactive); in the assay with XF498 it was 26.7 µM (inactive).

Take `O=C(O)[C@H](NS(=O)(=O)c1ccc2ccccc2c1)c1ccccc1`: the GI50 in the assay with M19-MEL, with HOP-18, with DMS-273, with DLD-1, in the assay on LXFL 529 and with RXF 631 was > 100 µM (inactive) in each case. Further, the GI50 with XF498 was 99.3 µM (inactive).

As for `O=C1C2=C(c3ccccc31)C(c1ccccc1Cl)NC(S)=N2` (stereo not drawn), the GI50 is 44.2 µM (inactive) in the assay with M19-MEL; 68.7 µM (inactive) with DMS-273; 64.9 µM (inactive) in the assay on DLD-1; 35.3 µM (inactive) with LXFL 529; 25.6 µM (inactive) with XF498.

For the compound `Clc1ccc2cccc3c2c1C1OC3c2ccccc21` (stereo not drawn), the GI50 in the assay on SNB-78, in the assay with M19-MEL, with HOP-18, in the assay with DMS-273, with DLD-1 and in the assay on DMS-114 was > 100 µM (inactive) in each case. Further, the GI50 in the assay on LXFL 529 and with XF498 was > 100 µM (inactive) in each case.

`COC(=O)c1oc([N+](=O)[O-])c(-c2ccccc2)c1-c1ccccc1`: the GI50 in the assay with SNB-78 is > 100 µM (inactive); in the assay with M19-MEL it was 36.8 µM (inactive); in the assay with HOP-18, > 100 µM (inactive); in the assay with DMS-273, > 100 µM (inactive); with DLD-1 it was 76.2 µM (inactive); in the assay on DMS-114, 88.3 µM (inactive). Further, the GI50 with LXFL 529, with RXF 631 and in the assay on XF498 was > 100 µM (inactive) in each case.

As for `O=Cc1ccc(-c2ccc(-c3ccc(C=O)s3)o2)s1`, the GI50 was > 72.8 µM (inactive) in the assay with SNB-78; > 100 µM (inactive) with M19-MEL; > 100 µM (inactive) in the assay with HOP-18; 26.2 µM (inactive) with DMS-273; 74.5 µM (inactive) in the assay with DLD-1; > 84.1 µM (inactive) with DMS-114. For the same compound, the GI50 is 0.186 µM (active) in the assay on LXFL 529 and 0.541 µM (active) in the assay with RXF 631.

Consider `N#Cc1c(N)c(C(=O)O)nn(-c2cccc(C(F)(F)F)c2)c1=O`, for which the GI50 with SNB-78 was > 100 µM (inactive); with M19-MEL, > 100 µM (inactive); with HOP-18, 29.2 µM (inactive); in the assay on DLD-1, 70.3 µM (inactive); with LXFL 529, > 100 µM (inactive); with RXF 631, > 100 µM (inactive). The GI50 with XF498 was > 100 µM (inactive).

Consider `CC(=O)Nc1ccc(C2C(C(=O)Nc3ccccc3)=C(C)NC(C)=C2C(=O)Nc2ccccc2)cc1`, for which the GI50 in the assay on SNB-78 is > 100 µM (inactive); with M19-MEL it was > 100 µM (inactive); in the assay on HOP-18 it was > 100 µM (inactive); with DMS-273, > 100 µM (inactive); in the assay on DLD-1, 97.5 µM (inactive); with DMS-114, 35.7 µM (inactive). The results for the GI50 in the assay with LXFL 529 and with XF498 were > 64.9 µM (inactive) and > 100 µM (inactive), respectively.

`O=CC[C@H]1CCc2ccccc2C12CCC(=O)CC2`: the GI50 is 57.7 µM (inactive) with M19-MEL; 60.7 µM (inactive) in the assay with DLD-1; 33.8 µM (inactive) with DMS-114; 57.5 µM (inactive) with LXFL 529; > 100 µM (inactive) with RXF 631; 51.5 µM (inactive) in the assay on XF498.

For `CN(C)C(=S)/N=c1\ss/c(=N\C(=S)N(C)C)n1-c1ccc(Cl)cc1`, the GI50 in the assay with SNB-78 was > 100 µM (inactive); in the assay on DMS-273, 39.9 µM (inactive); in the assay with LXFL 529, > 100 µM (inactive); with XF498, > 100 µM (inactive).

Take `CC1OC(=O)C2CC3CCCCC3C(/C=C/C3CCCC(C)N3C)C12` (stereo not drawn): the GI50 was > 22.5 µM (inactive) in the assay on SNB-78; > 100 µM (inactive) with M19-MEL; > 100 µM (inactive) in the assay on HOP-18; > 100 µM (inactive) with DMS-273; > 100 µM (inactive) with DLD-1; > 100 µM (inactive) in the assay with DMS-114. The GI50 with LXFL 529 and with XF498 was > 100 µM (inactive) in each case.

For `Cn1cc(C(=O)C2CCCCC2)ccc1=O`, the GI50 with SNB-78, in the assay on DMS-273, with DLD-1, with DMS-114, in the assay with RXF 631 and in the assay on XF498 was > 100 µM (inactive) each time.

With `CCCCCCCCCCCC[S+](C)C`, the GI50 in the assay on SNB-78 is 5.2 µM (inactive); in the assay with M19-MEL, 1.45 µM (inactive); in the assay with HOP-18 it was 4.97 µM (inactive); with DMS-273, 5.2 µM (inactive); in the assay with DLD-1, 8.81 µM (inactive); in the assay on DMS-114, 2.5 µM (inactive). Also, the GI50 in the assay with XF498 is 2.69 µM (inactive).

On to `C=C1C(=O)OC2/C=C(\C=O)CC/C=C(\C)C(O)C[C@@H]12` (stereo partly drawn), for which the GI50 with SNB-78 is 4.24 µM (inactive); in the assay on M19-MEL, 5.45 µM (inactive); in the assay on HOP-18 it was 16.9 µM (inactive); in the assay on DMS-273, 4.36 µM (inactive); with DLD-1, 2.39 µM (inactive); with DMS-114 it was 11.7 µM (inactive). Further, the GI50 is 3.36 µM (inactive) in the assay on LXFL 529 and 4.99 µM (inactive) in the assay with XF498.

In the case of `O=C1C2C(C(=O)N1c1ccccc1)C1c3ccccc3C2C2C(=O)N(c3ccccc3)C(=O)C21` (stereo not drawn), the GI50 with M19-MEL was 39.5 µM (inactive); with HOP-18, > 100 µM (inactive); in the assay with DMS-273, 3.46 µM (inactive); in the assay on DLD-1, 2.73 µM (inactive); in the assay on DMS-114, 3.08 µM (inactive); in the assay on LXFL 529, 38.5 µM (inactive).
